Source: patent US11040937B2, “Amide derivative” (TOHOKU UNIVERSITY, priority 2014, dated 2021)

System: A549 cells
Assay: Matrix-Invasion assay (Matrigel)
Format: cell-based, human
Conditions: 10 μmol/L, 48±4 hours, significance level less than 5%
Procedure: As a second test for determining whether or not the physiological function of cells induced by the OPN production is inhibited with a test compound, Matrix-Invasion assay was performed. In this assay, cups (inserts) whose bottom was covered with a membrane having φ8 μm pores coated with collagen or laminin (Matrigel, BD Bioscience) that is an extracellular matrix component and a 24-well plate for inserting the inserts were prepared. […]
Specifically, a fluorescent dye was introduced into A549 cells invading outside the membrane, and then the cells were separated from the membrane to measure their fluorescence intensity. At the same time, a fluorescent dye was introduced into a known number of cells for preparing a calibration curve, and a calibration curve was prepared from their fluorescence intensity. Then, the number of invading cells of a test sample containing an unknown number of cells was determined from the fitted curve. […]
The cells of human non-small cell lung cancer-derived cell line A549 were suspended in DMEM medium containing 10% FCS and 1% P/S at 1.8×10^5 cells/mL to obtain a cell suspension. […] This day was counted as Day 0 of operation. […]

COc1ccc(Oc2cccc(C(=O)CCNC(=O)c3ccc(O)cc3)c2N)cc1 [Compound 6, N-(3-(2-Amino-3-(4-methoxyphenoxy)phenyl)-3-oxopropyl)-4-hydroxybenzamide]
number of invading cells vs control group: significantly inhibited
